Measurements from US12077768B2, “Plants having increased tolerance to herbicides” (BASF AGRO B.V., priority 2013, dated 2024).

Test system: mutated PPO sequences (e.g. SEQ ID NOs: 1, 30, 31, 11, 37, and 117) as wildtype or with respective mutations, expressed in leaf discs
Test: Herbicide tolerance of transiently transformed tobacco leaf discs expressing wildtype or mutated PPO: tolerance factors from IC50 of PSII yield inhibition versus empty vector
Format: cell-based, Nicotiana benthamiana

## C#CCN1C(=O)C(F)(F)Oc2cc(F)c(-n3c(=O)n(C)c(=S)n(C)c3=O)cc21 [1,5-dimethyl-6-thioxo-3-(2,2,7-trifluoro-3-oxo-4-(prop-2-ynyl)-3,4-dihydro-2H-benzo[b][1,4]oxazin-6-yl)-1,3,5-triazinane-2,4-dione]
  Tolerance factor (IC50 of PSII yield inhibition, transformed versus empty vector-transformed leaf discs): 28.7
